The subject of the assay is CEM cells HIV-1 protection, formazan growth assay. In words: NCI AIDS Antiviral Assay. The note with it: for IC50: measured here: growth of uninfected CEM cells. The gist of the method:
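Human CEM cells, uninfected and HIV-1-infected, exposed to five drug concentrations; growth measured by soluble formazan assay and scored as percent protection from infection, with protecting compounds retested.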

Our source for the EC50, IC50 and outcome values is PubChem BioAssay AID179 (DTP/NCI, 2004).

SMILES strings stand for the structures. Active and inactive are the calls of the source.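 The calls were made as follows: active = compounds giving half or more protection of infected cells from virus-caused growth loss, again on retest; inactive = the rest.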 A value given as a limit tells only on which side of the number the result lay.

As for `CCOC(=O)c1cc2c(nc1NCc1ccccc1)C(=O)CCCC2`, the EC50 was greater than 200 µM and the IC50 was determined as 19.1 µM.
With `CCOc1cc2c(=O)oc3c(OC)ccc4ccc(c1OC)c2c43`, the result was inactive.
As to `Cc1ccc(S(=O)(=O)N/N=C(/CC(=O)c2c(C)n([O-])c3ccccc3[n+]2=O)C(=O)Nc2ccccc2C)cc1`, the EC50 is greater than 33.1 µM and the IC50 was greater than 33.1 µM.
With `CCOC(=O)NN(C(=O)OCC)c1c(C)cc(C)cc1C`, the EC50 was greater than 200 µM and the IC50 is greater than 200 µM.
Consider `COc1ccc(N(C)S(=O)(=O)c2ccccc2)cc1`, for which the EC50 was greater than 200 µM and the IC50 is 123 µM.
The like results for `CN1CN(c2ccccc2)C2(CCN(C3Nc4ccccc4O3)CC2)C1=O` (stereo unspecified) were, in that order, greater than 200 µM and 74.1 µM.
On to `COc1cc(C(=O)CBr)c(OC)cc1C`, for which the EC50 is greater than 200 µM and the IC50 is greater than 200 µM.
Consider `COc1ccc(C2=NNC(=O)C2(C)Br)cc1` (stereo unspecified), for which the EC50 was greater than 200 µM and the IC50 turned out to be 42.7 µM.
Turning to `N#C[C@](CO)(NC(=O)OCc1ccccc1)C(F)F`, the EC50 was greater than 200 µM and the IC50 is greater than 200 µM.
For the molecule `COc1ccc(C(=O)CC(=O)c2ccc3ccccc3n2)c(O)c1OC`, the EC50 was greater than 200 µM and the IC50 came to 12.9 µM.
In the case of `C[C@H](CCC(=O)O)[C@H]1CC[C@H]2[C@@H]3[C@H](O)C[C@@H]4C[C@H](O)CC[C@]4(C)[C@H]3CC[C@]12C`, the EC50 is greater than 200 µM and the IC50 was 39.8 µM.
As for `Cc1ccc(N=Nc2cc(=O)[nH]c(=O)[nH]2)cc1C`, the EC50 was greater than 200 µM and the IC50 came to 3.98 µM.
For the molecule `COc1cc2c(cc1OC)C1Cc3sccc3CN1CC2` (stereo unspecified), the outcome was inactive.
`O=c1c2cc3c(=O)n(O)c(=O)c3cc2c(=O)n1O`: the EC50 is greater than 200 µM and the IC50 is greater than 200 µM.
`CCN(CC)CCCNc1ccc([N+](=O)[O-])c2nc3ccc(OC)cc3c(N)c12`: the EC50 was greater than 200 µM and the IC50 turned out to be 0.776 µM.
The like results for `CC(C)(C)n1[se]c2ccccc2c1=O` were, in that order, greater than 129 µM and 9.33 µM.
Take `O=[N+]([O-])C(C(Cl)=C(Cl)Cl)=C(N(Cc1ccccc1)Cc1ccccc1)N(Cc1ccccc1)Cc1ccccc1`: the EC50 was greater than 0.2 µM and the IC50 was greater than 0.2 µM.
For `COC(=O)C1CCC(=S)N1C(C)=O` (stereo unspecified), the EC50 is greater than 200 µM and the IC50 was greater than 200 µM.
As to `CNc1ccc(C)cc1S(=O)(=O)c1ccccc1[N+](=O)[O-]`, the EC50 was 0.832 µM and the IC50 is 16.6 µM.
The like results for `CCOc1ccc(NC(=O)C(=O)Nn2c(N)nnc2N)cc1` were, in that order, greater than 61.7 µM and greater than 61.7 µM.
With `O=C(/C=C/c1cc(O)c(O)c(O)c1)OCCc1ccccc1`, the EC50 was greater than 50.1 µM and the IC50 worked out at 15.5 µM.
For the molecule `O=C1c2ccccc2C(=O)c2c(NCCNC(=O)C3CCCN3)ccc(NCCNC(=O)C3CCCN3)c21` (stereo unspecified), the EC50 was greater than 151 µM and the 50% inhibitory concentration (IC50) came out at 22.4 µM.
As for `CC(CCC(=O)O)CCC(=O)O`, the EC50 is greater than 1450 µM and the IC50 was greater than 1450 µM.
As to `O=C1c2c(O)cc(O)cc2OC(c2ccc(O)cc2)C1C1C(=O)c2c(O)cc(O)cc2OC1c1ccc(O)cc1` (stereo unspecified), the EC50 was greater than 200 µM and the IC50 was 46.8 µM.
For `C=CCNC(=S)/N=C/C(C(=O)Nc1ccc(Cl)cc1)=C(\C)O`, the EC50 is greater than 200 µM and the IC50 is 129 µM.
Turning to `C/C(=N/NC(=O)c1ccncc1)C(F)(F)F`, the outcome was inactive.
With `Cc1cccc(CNc2ncnc3[nH]ncc23)c1`, the EC50 is greater than 200 µM and the IC50 was greater than 200 µM.
Turning to `C[S+](C)c1ccccc1NC(C)(C)C`, the EC50 is greater than 776 µM and the IC50 amounted to 490 µM.
Turning to `NC(=O)C12CCC1C1CCCCC12N1CCOCC1` (stereo unspecified), the outcome was inactive.
Turning to `O=C([O-])C(F)(F)F.[C-]#[O+].[C-]#[O+].[C-]#[O+].[C-]#[O+].[C-]#[O+].[Mn]`, the EC50 was greater than 813 µM and the IC50 turned out to be 44.7 µM.
With `C=C1CC[C@@](C)(c2ccc(C)cc2)C1C` (stereo partly specified), the result was inactive.
With `CCN(CC)CSc1nc2ccccc2s1`, the result was inactive.
For `COc1cc2oc(-c3ccc4c(c3)OCO4)c(OC)c(=O)c2c(OC)c1O`, the EC50 was greater than 200 µM and the IC50 is greater than 200 µM.
On to `c1ccc2c(c1)ccn2CCc1c[nH]c2ccccc12`, for which the EC50 is greater than 200 µM and the IC50 was greater than 200 µM.
Take `CNC(=O)NCCN1N=C(C)/C(=C\c2ccccc2)CC1=O`: the outcome was inactive.
The same measure, in the same setting: the value for `CC1=NN(c2ccccc2)C(=O)C1N=Nc1ccc(S(=O)(=O)Nc2occ(C)c2C)cc1` (stereo unspecified) was “inactive”.
For the molecule `C1CSC2=C(S1)SC1=C(S2)SC(=C2SC3=C(SC4=C(SCCS4)S3)S2)S1`, the EC50 is greater than 200 µM and the IC50 is greater than 200 µM.
Turning to `OC/C=C/c1ccc(O)c(O)c1`, the result was inactive.
Consider `Cc1ccc(S(=O)(=O)N2CCN3C(=O)c4ccccc4C32c2ccc(F)cc2)cc1` (stereo unspecified), for which the EC50 was greater than 200 µM and the concentration for half-maximal inhibition (IC50) turned out to be 31.6 µM.
Consider `NC1=NS(=O)(=O)Nc2nn(-c3ccccc3)nc21`, for which the EC50 is greater than 339 µM and the IC50 is greater than 339 µM.
With `CCC1C(C#N)=C(O)NC(O)=C1C#N`, the EC50 was greater than 1290 µM and the IC50 was found to be 813 µM.
The corresponding values for `Cn1cnc([N+](=O)[O-])c1Sc1nccn1-c1cccc2ccccc12` are greater than 102 µM and 13.2 µM.
As to `COc1cccc2c1[C@]1(O)C(O)CCCC21` (stereo partly specified), the EC50 was greater than 200 µM and the IC50 is greater than 200 µM.
On to `Nn1c(-c2ccccc2)nn(C(=O)c2ccccc2)c1=O`, for which the EC50 was greater than 200 µM and the IC50 was greater than 200 µM.
In the case of `CS1(C)=NC(=O)C2=C(N=1)c1ccccc1S2(=O)=O`, the EC50 is greater than 47.9 µM and the IC50 was greater than 47.9 µM.
With `Nc1nc2n(nc[n+]2CCP(=O)(O)O)c(=O)[nH]1`, the outcome was inactive.
For the molecule `CCN(CC)CCn1nc(N)c2nc3ccccc3nc21`, the EC50 is greater than 200 µM and the IC50 is 107 µM.
Turning to `O=[N+]([O-])c1cc(S(=O)(=O)c2ccc(O)c([N+](=O)[O-])c2)ccc1O`, the EC50 was greater than 200 µM and the IC50 is greater than 100 µM.
With `N#Cc1ccccc1NC(=O)C(=O)C1NC(=S)NC1=O` (stereo unspecified), the result was inactive.
Still for that read-out and setting: the value for `Cc1ccc(S(=O)CC(CF)OCn2cc(C)c(=O)[nH]c2=O)cc1` (stereo unspecified) was “inactive”.
Consider `Cc1ccc([N+](=O)[O-])cc1/C(C#N)=C/c1ccccc1`, for which the EC50 is greater than 200 µM and the IC50 amounted to 33.1 µM.
The corresponding values for `Cc1cc(=O)oc2c3c(ccc12)OC(c1ccc(Br)cc1)CC3=O` (stereo unspecified) are greater than 200 µM and 46.8 µM.
Take `CC(=S)NC1C(Oc2ccc3c(C)cc(=O)oc3c2)OC(CO)C(O)C1O` (stereo unspecified): the EC50 is greater than 200 µM and the IC50 is greater than 200 µM.
With `COc1ccc(NC2Oc3cc4c(cc3C(c3cc(OC)c(OC)c(OC)c3)C2C)OCO4)cc1` (stereo unspecified), the EC50 was greater than 20 µM and the IC50 was 0.398 µM.
As to `O=C1c2ccccc2C(=O)c2c(NCCOCCO)ccc(NCCOCCO)c21`, the EC50 is greater than 200 µM and the IC50 was 107 µM.
In the case of `O=C1NC(O)c2ccccc2O1` (stereo unspecified), the EC50 was 85.1 µM and the IC50 was greater than 200 µM.
Take `CCOP(=O)(OCC)/C(C#N)=C/c1cccc([N+](=O)[O-])c1`: the EC50 is greater than 813 µM and the IC50 amounted to 166 µM.
In the case of `CCCCCCCCCCCCCCCCCCNC(=S)/N=C\C(C(=O)Nc1ccccc1C)=C(/C)O`, the EC50 was greater than 200 µM and the IC50 was 115 µM.
As to `Cc1c(N=Nc2ccccc2)c(-c2ccccc2)n(C2OC(CO)C(O)C(O)C2O)c(=S)c1C#N` (stereo unspecified), the EC50 was greater than 200 µM and the IC50 turned out to be 15.1 µM.
For the molecule `COc1cc(NCc2ccc3nc(OC)c(OC)nc3c2)cc(OC)c1OC`, the EC50 is greater than 200 µM and the IC50 was greater than 200 µM.
`CC(O)CN1c2ccccc2Sc2ccccc21` (stereo unspecified): the EC50 was greater than 200 µM and the IC50 was greater than 200 µM.
As to `Cc1cccc(NC(=O)Cc2nc3ccccc3s2)c1C`, the EC50 is greater than 17.8 µM and the IC50 was greater than 17.8 µM.
For `COc1ccc(/C(=N/Nc2ccccc2)C(c2ccc(OC)cc2)C2OC(=O)c3ccccc32)cc1` (stereo unspecified), the EC50 is greater than 28.2 µM and the IC50 is greater than 28.2 µM.
For `O=C(Nc1ccc(C2=NCCN2)cc1)c1ccc(F)c(C(=O)Nc2ccc(C3=NCCN3)cc2)c1`, the EC50 is greater than 200 µM and the IC50 was greater than 200 µM.
Turning to `O=c1cc(C(F)(F)F)c2cc3c4c(c2o1)CCCN4CCC3`, the EC50 was greater than 4.68 µM and the IC50 was greater than 4.68 µM.
Turning to `COc1cc(C)cc(C(=O)OCc2ccccc2)c1C1=C(Cl)C(=O)C(Cl)=CC1=O`, the EC50 is greater than 52.5 µM and the IC50 came out at 8.51 µM.
In the case of `CCCCCCCCCCCCCCCC(=O)OCC(COP(=O)(O)OCCNC(=O)CCSSc1ccccn1)OC(=O)CCCCCCCCCCCCCCC` (stereo unspecified), the EC50 is greater than 50.1 µM and the IC50 came out at 37.2 µM.
The like results for `CN1CCN(C(=O)c2cccc3cccc(C(=O)O)c23)CC1` were, in that order, greater than 832 µM and 724 µM.
As for `CC(C)(C)c1ccc(OCCOc2ccc(C(C)(C)C)cc2NC=O)c(NC=O)c1`, the EC50 is greater than 200 µM and the IC50 came out at 5.13 µM.
For the molecule `O=C1C(Cl)C(c2ccccc2Cl)N1n1cnc2ccccc2c1=O` (stereo unspecified), the EC50 is greater than 14.5 µM and the IC50 was greater than 14.5 µM.
Consider `O=C(CC(O)(C(F)(F)F)C(F)(F)Cl)CC(O)(C(F)(F)F)C(F)(F)Cl` (stereo unspecified), for which the outcome was inactive.
Take `O=C1OCC(Cl)O1` (stereo unspecified): the EC50 is greater than 200 µM and the IC50 is greater than 200 µM.
`C=C1C(OC(=O)c2ccccc2)C2[C@@H](OC(=O)CC)[C@@H](C)C[C@]2(O)C(=O)[C@@H](C)/C=C/C(C)(C)C(=O)C(O)[C@H]1OC(=O)C(C)C` (stereo partly specified): the outcome was inactive.
For `COc1cc(/C=C\c2ccc(SC)cc2)cc(OC)c1OC`, the EC50 was greater than 42.7 µM and the IC50 worked out at 0.0724 µM.
`Cc1ccc2c(c1)C1(c3ccc(Cl)cc3)Oc3ccc(C)cc3C(c3ccc(Cl)cc3)(O2)O1`: the EC50 was greater than 75.9 µM and the IC50 is greater than 75.9 µM.
